Laboratory results: patent US12552783B2, “Modulators of proteolysis and associated methods of use” (Arvinas Operations, Inc., priority 2018, dated 2026)

Target: KRas (Homo sapiens, UniProt P01116, G12C)
Experiment: KRas degradation in NCI-H2030 cells by Western blot, normalized to GAPDH (data of Table 14)
Type: cell-based
Set-up: host or cells: NCI-H2030
Conditions: for Dmax: NCI-H2030
How it was run: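 Degradation of endogenous homozygous G12C KRas is measured by immunoblot after serum starvation and compound exposure at three final concentrations (0.3, 1 and 3 μM). VHL-recruiting compounds are incubated 24 h and all others 72 h. Percent loss is calculated from GAPDH-normalized KRas relative to vehicle.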

Structure (SMILES): CCC(=O)N1CCN(c2nc(NCCC(=O)N(C)CCOCCOCCOCCOc3cc(-c4scnc4C)ccc3CNC(=O)[C@@H]3C[C@@H](O)CN3C(=O)[C@@H](c3cc(C)no3)C(C)C)nc3c(F)c(-c4cc(O)cc5ccccc45)c(Cl)cc23)CC1 [compound 334, (2S,4R)-N-(2-((15-((6-chloro-8-fluoro-7-(3-hydroxynaphthalen-1-yl)-4-(4-propionylpiperazin-1-yl)quinazolin-2-yl)amino)-12-methyl-13-oxo-3,6,9-trioxa-12-azapentadecyl)oxy)-4-(4-methylthiazol-5-yl)benzyl)-4-hydroxy-1-((R)-3-methyl-2-(3-methylisoxazol-5-yl)butanoyl)pyrrolidine-2-carboxamide]
- Percent Degradation at Indicated Concentration (μM): 0.3 (H2030 cells, 0.3 μM): C (C ≤ 35)
- Percent Degradation at Indicated Concentration (μM): 1 (H2030 cells, 1 μM): C (C ≤ 35)
- Percent Degradation at Indicated Concentration (μM): 3 (H2030 cells, 3 μM): C (C ≤ 35)
- Dmax (H2030 cells): ≤ 35%

Structure (SMILES): C=CC(=O)N1CCN(c2nc(O[C@H](C)CN3CCC(OCCOCCOCCOc4ccc5c(c4)C(=O)N(C4CCC(=O)NC4=O)C5=O)CC3)nc3c2CCN(c2cc(O)cc4ccccc24)C3)CC1 (stereo partly drawn) [compound 418, 5-(2-(2-(2-((1-((R)-2-((4-(4-acryloylpiperazin-1-yl)-7-(3-hydroxynaphthalen-1-yl)-5,6,7,8-tetrahydropyrido[3,4-d]pyrimidin-2-yl)oxy)propyl)piperidin-4-yl)oxy)ethoxy)ethoxy)ethoxy)-2-(2,6-dioxopiperidin-3-yl)isoindoline-1,3-dione]
- Percent Degradation at Indicated Concentration (μM) (H2030 cells, 0.3 μM): C (Percent Degradation: C ≤ 35)
- Percent Degradation at Indicated Concentration (μM) (H2030 cells, 1 μM): C (Percent Degradation: C ≤ 35)
- Percent Degradation at Indicated Concentration (μM) (H2030 cells, 3 μM): C (Percent Degradation: C ≤ 35)

Structure (SMILES): C=CC(=O)N1CCN(c2nc(OC3CCN(CCOCCOCCOCCOCC(=O)N[C@H](C(=O)N4C[C@H](O)C[C@H]4C(=O)N[C@@H](C)c4ccc(-c5scnc5C)cc4)C(C)(C)C)CC3)nc3c(F)c(-c4cc(O)cc5ccccc45)c(Cl)cc23)CC1 [compound 474, (2S,4R)-1-((2S)-17-(4-((4-(4-acryloylpiperazin-1-yl)-6-chloro-8-fluoro-7-(3-hydroxynaphthalen-1-yl)quinazolin-2-yl)oxy)piperidin-1-yl)-2-(tert-butyl)-4-oxo-6,9,12,15-tetraoxa-3-azaheptadecanoyl)-4-hydroxy-N-((S)-1-(4-(4-methylthiazol-5-yl)phenyl)ethyl)pyrrolidine-2 carboxamide]
- Percent Degradation at Indicated Concentration (μM) (H2030, 0.3 μM): C (Percent Degradation: C ≤ 35)
- Percent Degradation at Indicated Concentration (μM) (H2030, 1 μM): C (Percent Degradation: C ≤ 35)
- Percent Degradation at Indicated Concentration (μM) (H2030, 3 μM): C (Percent Degradation: C ≤ 35)
- Dmax: ≤ 35%

Structure (SMILES): C=CC(=O)N1CCN(c2nc(NCCC(=O)N(C)CCOCCOCCNC(=O)c3ccc(NC(=O)[C@@H]4N[C@@H](CC(C)(C)C)[C@](C#N)(c5ccc(Cl)cc5F)[C@H]4c4cccc(Cl)c4F)c(OC)c3)nc3c(F)c(-c4cc(O)cc5ccccc45)c(Cl)cc23)CC1 [compound 302, (2R,3S,4R,5S)-N-(4-((2-(2-(2-(3-((4-(4-acryloylpiperazin-1-yl)-6-chloro-8-fluoro-7-(3-hydroxynaphthalen-1-yl)quinazolin-2-yl)amino)-N-methylpropanamido)ethoxy)eth-oxy)ethyl)carbamoyl)-2-methoxyphenyl)-3-(3-chloro-2-fluorophenyl)-4-(4-chloro-2-fluorophenyl)-4-cyano-5-neopentylpyrrolidine-2-carboxamide]
- Percent Degradation at Indicated Concentration (μM) (H2030, 0.3 μM): C (Percent Degradation: C ≤ 35)
- Percent Degradation at Indicated Concentration (μM) (H2030, 1 μM): C (Percent Degradation: C ≤ 35)
- Percent Degradation at Indicated Concentration (μM) (H2030, 3 μM): C (Percent Degradation: C ≤ 35)
- Dmax: ≤ 35%
